Experimental data as given in ChEMBL document CHEMBL2413072, “Synthesis and in vitro anticancer studies of novel C-2 arylidene congeners of lantadenes” (2013).

Legend:
Format in all cases: functional
[1] = Growth inhibition of human HCC2998 cells assessed as cell growth at 10^-6 M by sulforhodamine B assay; details: HCC 2998, read-out: Activity
MOLT-4 = assay: Growth inhibition of human MOLT4 cells assessed as cell growth at 10^-6 M by sulforhodamine B assay; details: read-out: Activity
SK-MEL-2 = assay: Growth inhibition of human SK-MEL-2 cells assessed as cell growth at 10^-6 M by sulforhodamine B assay; details: read-out: Activity
RXF 393 = assay: Growth inhibition of human RXF393 cells assessed as cell growth at 10^-6 M by sulforhodamine B assay; details: read-out: Activity
COLO 205 = assay: Growth inhibition of human COLO205 cells assessed as cell growth at 10^-8 M by sulforhodamine B assay; details: read-out: Activity
MDA-MB-435 = assay: Growth inhibition of human MDA-MB-435 cells assessed as cell growth at 10^-4 M by sulforhodamine B assay; details: read-out: Activity
NCI-H522 = assay: Growth inhibition of human NCI-H522 cells assessed as cell growth at 10^-4 M by sulforhodamine B assay; details: read-out: Activity
TK-10 = assay: Growth inhibition of human TK10 cells assessed as cell growth at 10^-7 M by sulforhodamine B assay; details: read-out: Activity
SF-539 [2] = assay: Growth inhibition of human SF539 cells assessed as cell growth at 10^-4 M by sulforhodamine B assay; details: read-out: Activity
KM12 = assay: Growth inhibition of human KM12 cells assessed as cell growth at 10^-6 M by sulforhodamine B assay; details: read-out: Activity
ACHN [3] = assay: Growth inhibition of human ACHN cells assessed as cell growth at 10^-4 M by sulforhodamine B assay; details: read-out: Activity
HL-60(TB) = assay: Growth inhibition of human HL-60(TB) cells assessed as cell growth at 10^-6 M by sulforhodamine B assay; details: read-out: Activity
HCT-116 = assay: Growth inhibition of human HCT116 cells assessed as cell growth at 10^-7 M by sulforhodamine B assay; details: read-out: Activity
OVCAR-8 = assay: Growth inhibition of human OVCAR8 cells assessed as cell growth at 10^-8 M by sulforhodamine B assay; details: read-out: Activity
CAKI-1 [4] = assay: Growth inhibition of human CAKI-1 cells assessed as cell growth at 10^-7 M by sulforhodamine B assay; details: read-out: Activity
IGROV-1 = assay: Growth inhibition of human IGROV1 cells assessed as cell growth at 10^-6 M by sulforhodamine B assay; details: read-out: Activity
SNB-19 = assay: Growth inhibition of human SNB19 cells by sulforhodamine B assay
[5] = Growth inhibition of human NCI-ADR-RES cells assessed as cell growth at 10^-6 M by sulforhodamine B assay; details: read-out: Activity
A549 = assay: Growth inhibition of human A549/ATCC cells assessed as cell growth at 10^-8 M by sulforhodamine B assay; details: read-out: Activity
[6] = Growth inhibition of human Hs 578T cells assessed as cell growth at 10^-6 M by sulforhodamine B assay; details: read-out: Activity
MDA-MB-468 [7] = assay: Growth inhibition of human MDA-MB-468 cells assessed as cell growth at 10^-6 M by sulforhodamine B assay; details: read-out: Activity
HT-29 = assay: Growth inhibition of human HT-29 cells assessed as cell growth at 10^-4 M by sulforhodamine B assay; details: read-out: Activity
CAKI-1 [8] = assay: Growth inhibition of human CAKI-1 cells assessed as cell growth at 10^-6 M by sulforhodamine B assay; details: read-out: Activity
SF-295 = assay: Growth inhibition of human SF295 cells assessed as cell growth at 10^-8 M by sulforhodamine B assay; details: read-out: Activity
SF-539 [9] = assay: Growth inhibition of human SF539 cells assessed as cell growth at 10^-6 M by sulforhodamine B assay; details: read-out: Activity
SF-268 = assay: Growth inhibition of human SF268 cells by sulforhodamine B assay
LOX IMVI = assay: Growth inhibition of human LOXIMVI cells assessed as cell growth at 10^-8 M by sulforhodamine B assay; details: read-out: Activity
NCI-H226 = assay: Growth inhibition of human NCI-H226 cells assessed as cell growth at 10^-8 M by sulforhodamine B assay; details: read-out: Activity
OVCAR-3 = assay: Growth inhibition of human OVCAR3 cells assessed as cell growth at 10^-6 M by sulforhodamine B assay; details: read-out: Activity
SNB-75 = assay: Growth inhibition of human SNB75 cells assessed as cell growth at 10^-4 M by sulforhodamine B assay; details: read-out: Activity
[10] = Growth inhibition of human HCC2998 cells assessed as cell growth at 10^-7 M by sulforhodamine B assay; details: HCC 2998, read-out: Activity
SK-OV-3 = assay: Growth inhibition of human SKOV3 cells assessed as cell growth at 10^-8 M by sulforhodamine B assay; details: read-out: Activity
HOP-92 = assay: Growth inhibition of human HOP92 cells assessed as cell growth at 10^-7 M by sulforhodamine B assay; details: read-out: Activity
NCI-H23 [11] = assay: Growth inhibition of human NCI-H23 cells assessed as cell growth at 10^-8 M by sulforhodamine B assay; details: read-out: Activity
SR = assay: Growth inhibition of human SR cells assessed as cell growth at 10^-8 M by sulforhodamine B assay; details: read-out: Activity
ACHN [12] = assay: Growth inhibition of human ACHN cells assessed as cell growth at 10^-6 M by sulforhodamine B assay; details: read-out: Activity
[13] = Growth inhibition of human NCI-ADR-RES cells by sulforhodamine B assay
NCI-H23 [14] = assay: Growth inhibition of human NCI-H23 cells by sulforhodamine B assay
MDA-MB-468 [15] = assay: Growth inhibition of human MDA-MB-468 cells by sulforhodamine B assay
786-0 = assay: Growth inhibition of human 786-0 cells assessed as cell growth at 10^-4 M by sulforhodamine B assay; details: read-out: Activity
HCT-15 = assay: Growth inhibition of human HCT15 cells by sulforhodamine B assay
BT-549 = assay: Growth inhibition of human BT549 cells assessed as cell growth at 10^-4 M by sulforhodamine B assay; details: read-out: Activity
[16] = read-out: LC50 (the source's name)
[17] = read-out: pLC50 (the source's name) (converted)

CC1(C)C[C@@H](O)[C@]2(C(=O)O)CC[C@]3(C)C(=CC[C@@H]4[C@@]5(C)C/C(=C\C=C\c6ccccc6)C(=O)C(C)(C)[C@@H]5CC[C@]43C)[C@@H]2C1
growth at 1 µM [1]: 108%
growth at 1 µM (MOLT-4): 89%
growth at 1 µM (SK-MEL-2): 100%
growth at 1 µM (RXF 393): 96%
growth at 0.01 µM (COLO 205): 103%
growth at 100 µM (MDA-MB-435): -43%
growth at 100 µM (NCI-H522): -86%
growth at 0.1 µM (TK-10): 93%
growth at 100 µM (SF-539 [2]): -90%
growth at 1 µM (KM12): 92%
growth at 100 µM (ACHN [3]): -93%
growth at 1 µM (HL-60(TB)): 112%
growth at 0.1 µM (HCT-116): 99%
growth at 0.01 µM (OVCAR-8): 95%
growth at 0.1 µM (CAKI-1 [4]): 97%
growth at 1 µM (IGROV-1): 113%
GI50 (SNB-19; read-out: GI50): 4.03 µM
CC50 (SNB-19; [16]): 44.5 µM
TGI (SNB-19; read-out: TGI): 16.5 µM
GI50 (SNB-19; read-out: pGI50 (converted)): 4.07 µM
CC50 (SNB-19; [17]): 44.7 µM
TGI (SNB-19; read-out: pTGI (converted)): 16.6 µM
growth at 1 µM [5]: 87%
growth at 0.01 µM (A549): 98%
growth at 1 µM [6]: 87%
growth at 1 µM (MDA-MB-468 [7]): 92%
growth at 100 µM (HT-29): -83%
growth at 1 µM (CAKI-1 [8]): 92%
growth at 0.01 µM (SF-295): 99%
growth at 1 µM (SF-539 [9]): 90%
GI50 (SF-268; read-out: GI50): 3.36 µM
LC50 (SF-268; read-out: LC50): 45.5 µM
TGI (SF-268; read-out: TGI): 14 µM
GI50 (SF-268; read-out: pGI50 (converted)): 3.39 µM
LC50 (SF-268; read-out: pLC50 (converted)): 45.7 µM
TGI (SF-268; read-out: pTGI (converted)): 14.1 µM
growth at 0.01 µM (LOX IMVI): 97%
growth at 0.01 µM (NCI-H226): 97%
growth at 1 µM (OVCAR-3): 92%
growth at 100 µM (SNB-75): -70%
growth at 0.1 µM [10]: 97%
growth at 0.01 µM (SK-OV-3): 96%
growth at 0.1 µM (HOP-92): 90%
growth at 0.01 µM (NCI-H23 [11]): 95%
growth at 0.01 µM (SR): 107%
growth at 1 µM (ACHN [12]): 97%
GI50 ([13]; read-out: GI50): 3.29 µM
CC50 [13, 16]: 43.2 µM
TGI ([13]; read-out: TGI): 14.1 µM
GI50 ([13]; read-out: pGI50 (converted)): 3.31 µM
CC50 [13, 17]: 43.7 µM
TGI ([13]; read-out: pTGI (converted)): 14.1 µM
GI50 (NCI-H23 [14]; read-out: GI50): 3.28 µM
CC50 (NCI-H23 [14]; [16]): 43.2 µM
TGI (NCI-H23 [14]; read-out: TGI): 12.3 µM
GI50 (NCI-H23 [14]; read-out: pGI50 (converted)): 3.31 µM
CC50 (NCI-H23 [14]; [17]): 43.7 µM
TGI (NCI-H23 [14]; read-out: pTGI (converted)): 12.3 µM
GI50 (MDA-MB-468 [15]; read-out: GI50): 3.3 µM
CC50 (MDA-MB-468 [15]; [16]): > 100 µM
TGI (MDA-MB-468 [15]; read-out: TGI): 12.7 µM
GI50 (MDA-MB-468 [15]; read-out: pGI50 (converted)): 3.31 µM
CC50 (MDA-MB-468 [15]; [17]): 37.2 µM
TGI (MDA-MB-468 [15]; read-out: pTGI (converted)): 12.6 µM
growth at 100 µM (786-0): -85%
GI50 (HCT-15; read-out: GI50): 3.22 µM
LC50 (50% lethal concentration) (HCT-15; read-out: LC50): 45.1 µM
TGI (HCT-15; read-out: TGI): 11.9 µM
GI50 (HCT-15; read-out: pGI50 (converted)): 3.24 µM
LC50 (50% lethal concentration) (HCT-15; read-out: pLC50 (converted)): 44.7 µM
TGI (HCT-15; read-out: pTGI (converted)): 12 µM
growth at 100 µM (BT-549): -72%
